Here are results for 12 molecules from patent US20100048575A1, “NOVEL TETRACYCLIC INHIBITORS OF CYSTEINE PROTEASES, THE PHARMACEUTICAL COMPOSITIONS THEREOF AND THEIR THERAPEUTIC APPLICATIONS” (priority 2006, published 2010).

The target of one test is T1, USP8 (Homo sapiens, UniProt P40818).
T1 construct: His tag (from vector pFastBac-HT) (N); made in house; host or cells: insect cells (Sf9 or High Five), baculovirus
T1 sequence (P40818 1-1118): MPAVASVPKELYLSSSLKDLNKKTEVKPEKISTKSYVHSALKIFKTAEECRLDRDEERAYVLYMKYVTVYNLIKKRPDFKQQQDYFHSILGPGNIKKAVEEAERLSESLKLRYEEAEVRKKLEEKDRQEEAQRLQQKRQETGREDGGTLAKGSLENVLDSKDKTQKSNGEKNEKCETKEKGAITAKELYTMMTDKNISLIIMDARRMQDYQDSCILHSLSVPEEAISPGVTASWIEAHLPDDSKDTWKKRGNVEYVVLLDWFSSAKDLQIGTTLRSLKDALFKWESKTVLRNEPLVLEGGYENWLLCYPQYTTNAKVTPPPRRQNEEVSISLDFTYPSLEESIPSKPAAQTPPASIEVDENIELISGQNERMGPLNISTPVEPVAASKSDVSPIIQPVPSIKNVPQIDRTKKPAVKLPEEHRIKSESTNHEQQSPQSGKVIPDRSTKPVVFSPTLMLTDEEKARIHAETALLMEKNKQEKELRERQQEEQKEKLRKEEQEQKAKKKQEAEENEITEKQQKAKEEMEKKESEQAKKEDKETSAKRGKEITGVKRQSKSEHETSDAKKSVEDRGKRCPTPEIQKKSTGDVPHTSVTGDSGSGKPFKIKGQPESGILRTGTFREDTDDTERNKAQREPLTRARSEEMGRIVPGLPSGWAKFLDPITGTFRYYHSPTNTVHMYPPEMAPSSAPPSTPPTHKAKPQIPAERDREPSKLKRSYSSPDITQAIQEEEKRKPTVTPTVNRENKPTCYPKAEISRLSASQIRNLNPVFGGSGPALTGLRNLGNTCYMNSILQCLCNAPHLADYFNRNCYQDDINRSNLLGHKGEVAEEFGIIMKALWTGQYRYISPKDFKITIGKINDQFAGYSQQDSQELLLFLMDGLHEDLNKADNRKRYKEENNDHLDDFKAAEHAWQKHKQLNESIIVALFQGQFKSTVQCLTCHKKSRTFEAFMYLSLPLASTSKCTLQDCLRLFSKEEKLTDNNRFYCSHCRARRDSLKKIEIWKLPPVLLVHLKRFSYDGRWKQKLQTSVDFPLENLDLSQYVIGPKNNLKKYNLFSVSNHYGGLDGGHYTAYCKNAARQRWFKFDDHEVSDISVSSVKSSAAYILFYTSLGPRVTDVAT
Briefly: USP8 activity assay (Ub-AMC). The class given is biochemical. Particulars: 400 nM Ub-AMC, 630 pM enzyme, pH8.8, 30 min pre-incubation, 60 min at 37° C., sigmoidal fit; read-out: USP8 (inhibition of cysteine protease activity). The source says: The cDNA encoding USP8 was obtained by PCR amplification from placenta mRNA. USP8 cDNA was subcloned by PCR into a baculovirus expression vector (pFastBac-HT; Invitrogen). A cDNA encoding a mutated USP8 was generated by mutagenic PCR. The corresponding protein encodes a cysteine to alanine substitution at residue 786. The sequences were ascertained by sequencing of the entire open reading frame. Bacmids encoding […] were generated following. DH10bac transposition. The corresponding bacmids were transfected into insect cells (Sf9). Viruses were recovered from culture supernatant and amplified twice. Insect cells (Sf9 or High Five; Invitrogen) were infected for 72 hours. Total cell lysates were harvested and lyzed in lysis buffer (Tris HCl 50 mM pH7.6; 0.75% NP40; 500 mM NaCl; 10% glycerol; 1 mM DTT; 10 mM imidazole; Protease Inhibitor Cocktail; AEBSF 20 μg.ml^−1; Aprotinin 10 μg.ml^−1). Proteins were affinity purified on metal affinity resins (Talon Metal affinity resin; BD Biosciences). Bound materials were extensively washed in wash buffer (50 mM Sodium Phosphate pH 7.0; 300 mM NaCl; 10 mM imidazole; 0.5% Triton X-100; 10% glycerol) and eluted from the resin in 250 mM imidazole-containing wash buffer. Proteins were dialyzed in dialysis buffer (Tris HCl pH 7.6 20 mM; NaCl 200 mM; DTT 1 mM; EDTA 1 mM; 10% Glycerol). Proteins purifications were analyzed on 4-12% NuPAGE (Invitrogen).
USP8 was diluted in USP buffer (50 mM Tris HCl; 0.5 mM EDTA; 5 mM DTT; 0.01% Triton X-100; Bovine Serum Albumin 0.05 mg.ml^−1 pH8.8). Compounds stocks (100 mM) were stored at −20° C. in DMSO.
Reactions were performed as duplicates in Black LJL 96 well plates (HE microplates; Molecular Devices; 20 μl final reaction volume). The substrate concentration for USP8 was 400 nM Ub-AMC (Boston Biochem). The concentrations of the enzyme (USP8) in specificity assays was 630 pM. The concentrations were determined in order to perform specificity assays under initial velocities at fixed substrate concentration. Compounds were pre-incubated with enzymes for 30 minutes at 25° C. Reactions were initiated by addition of substrate to the plates containing the enzymes (+/−compounds) diluted in assay buffer. Reactions were incubated for 60 minutes at 37° C. Reactions were stopped by adding acetic acid (100 mM final). Readings were performed on a Pherastar Fluorescent Reader (BMG). λ Emission 380 nm; λ Excitation=460 nm. Data (mean values +/−standard deviation) were analyzed as % of control (no compound) and plotted as percentage versus the Log of the compound concentration using GraphPad (Prism). Data were fitted to a sigmoidal model (variable slope).

Test [1] has as its system PC-3 prostate cancer cells. Briefly: PC3 cell viability and proliferation assay (MTS). The class given is cell-based. Particulars: Homo sapiens, 72 hours, mean of 3 independent experiments, read-out: PC3 GI50 D3. How it is done:
PC-3 prostate cancer cells were obtained from ATCC, and maintained in F-12K medium containing 7% FBS and 1% penicillin/streptomycin. Cells were incubated at 37° C. in a humidified atmosphere containing 5% CO2.
Cell viability was assayed using the MTS technique in 96-well culture plates (CellTiter 96® Aqueous Non-Radioactive Cell Proliferation Assay, Promega) according to the manufacturer's instructions. MTS (3-(4,5-dimethyl-thiazol-2-yl)-5-(3-carboxymethoxyphenyl)-2-(4-sulfophenyl)-2H-tetrazolium) is a MTT-derived tetrazolium that is reduced in metabolically active cells into a soluble, cell-permeant formazan. The amount of formazan, detected by its absorbance at 492 nm is proportional to the number of living, metabolically active cells.
2×10^3 PC3 cells were seeded per well. 24 hours later, the medium was changed and the cells treated in triplicate with the following concentrations of each compound: 10 μM-3.33 μM-1.11 μM-370 nM-123 nM-41 nM-14 nM and 5 nM. The compounds were diluted in 100% DMSO, whose final concentration on cells was kept at 0.5%.
Cells were incubated with the compounds for 72 hours, and their viability then assayed by the addition of MTS for 2 hours. Absorbance at 492 nm was measured directly from the 96-well culture plates. GI50 (Growth Inhibition 50) concentrations for each compound were calculated using a sigmoidal variable slope fit (Prism 4.0, Graphpad Softwares). Values represent mean of 3 independent experiments.

The term GI50 denotes the concentration that inhibits growth by half. For the molecule `C=CCON=C1c2ccccc2-c2nn3c(C)nnc3nc21` (mixture of isomers) [5b, 3-Methyl-1,2,3a,4,10-pentaaza-cyclopenta[b]fluoren-9-one O-allyl-oxime], on USP8, the IC50 came to 355 nM. Moreover, the GI50 in test [1] worked out at 6690 nM. For `ON=C1c2ccccc2-c2nn3nnnc3nc21` (mixture of isomers) [compound 7, 1,2,3,3a,4,10-hexaaza-cyclopenta[b]fluoren-9-one oxime], the concentration for 50% growth inhibition (GI50) in test [1] was determined as 466 nM. On to `CCc1nnc2nc3c(nn12)-c1ccccc1C3=NOCc1ccccc1` (mixture of isomers) [10h, 3-Ethyl-1,2,3a,4,10-pentaaza-cyclopenta[b]fluoren-9-one O-benzyl-oxime], for which the IC50 at USP8 stood at 807 nM.

Turning to `c1ccc(OCCCON=C2c3ccccc3-c3nn4nnnc4nc32)cc1` (mixture of isomers) [8c, 1,2,3,3a,4,10-Hexaaza-cyclopenta[b]fluoren-9-one O-(3-phenoxy-propyl)-oxime], the IC50 at USP8 came to 225 nM. Also, the concentration for 50% growth inhibition (GI50) in test [1] is 502 nM.

`CCc1nnc2nc3c(nn12)-c1ccccc1C3=NOC` (mixture of isomers) [10b, 3-Ethyl-1,2,3a,4,10-pentaaza-cyclopenta[b]fluoren-9-one O-methyl-oxime]: the IC50 on USP8 came out at 528 nM. Same read-out and setting: as for `CCON=C1c2ccccc2-c2nn3c(CC)nnc3nc21` (mixture of isomers) [10d, 3-Ethyl-1,2,3a,4,10-pentaaza-cyclopenta[b]fluoren-9-one O-ethyl-oxime], the figure is 381 nM. As for `C=CCON=C1c2ccccc2-c2nn3c(CC)nnc3nc21` (mixture of isomers) [10f, 3-Ethyl-1,2,3a,4,10-pentaaza-cyclopenta[b]fluoren-9-one O-allyl-oxime], the IC50 at USP8 was found to be 342 nM. Further, the GI50 in test [1] was determined as 8400 nM. For the molecule `C=CCON=C1c2ccccc2-c2nn3nnnc3nc21` (mixture of isomers) [compound 6, 1,2,3,3a,4,10-hexaaza-cyclopenta[b]fluoren-9-one O-allyl-oxime], in test [1], the GI50 worked out at 180 nM.

As to `C=CCON=C1c2ccccc2-c2nn3c(CCCC)nnc3nc21` (mixture of isomers) [5d, 3-Butyl-1,2,3a,4,10-pentaaza-cyclopenta[b]fluoren-9-one O-allyl-oxime], the IC50 on USP8 is 565 nM. In addition, the GI50 in test [1] was determined as 2790 nM.

With `CCCCCCCCCCON=C1c2ccccc2-c2nn3nnnc3nc21` (mixture of isomers) [8a, 1,2,3,3a, 4,10-Hexaaza-cyclopenta[b]fluoren-9-one O-decyl-oxime], at USP8, the IC50 was determined as 27800 nM. Also, the GI50 in test [1] was determined as 391 nM. The corresponding values for `CON=C1c2ccccc2-c2nn3c(C)nnc3nc21` (mixture of isomers) [5a, 3-Methyl-1,2,3a,4,10-pentaaza-cyclopenta[b]fluoren-9-one O-methyl-oxime] are 580 nM and 6150 nM.

`COCCON=C1c2ccccc2-c2nn3nnnc3nc21` (mixture of isomers) [8b, 1,2,3,3a, 4,10-Hexaaza-cyclopenta[b]fluoren-9-one O-(2-methoxy-ethyl)-oxime]: the GI50 in test [1] is 457 nM.
